According to ChEMBL document CHEMBL1131551, “Carbocyclic frenolicin analogues: novel anticoccidial agents” (1998):

Tested on: Eimeria
Assay: In vitro ability to disrupt infectious activity of Eimeria sporozoites expressed as potency relative to frenolicin (B=1)
Assay type: functional

| SMILES | Relative potency |
| --- | --- |
| O=C1CC2CCC3=C(C(=O)c4cccc(O)c4C3=O)C2O1 (stereo not drawn) | 0.033 |
| O=C1C[C@H]2CCC3=C(C(=O)c4ccccc4C3=O)[C@H]2O1 | 0.167 |
| CC(=O)OC1CCCC2=C1C(=O)c1ccccc1C2=O (stereo not drawn) | 0.001 |
